pKd: −log10 of the molar value.

21 molecules from patent US8133998B2, “Bicyclic pyrimidine derivatives as calcium channel blockers” (Zalicus Pharmaceuticals, Ltd., priority 2007, dated 2012) can be followed below.

What all share (experiment): T-type calcium channel block, whole cell patch clamp in HEK cells
What all share (assay type): cell-based
(The patch-clamp technique gives a direct electrical read-out from membranes.)

In assay [1] the target is T1, human α1G T-type channels (Homo sapiens, UniProt O43497).
T1 construct: expressed in transfected cells; host or cells: HEK 293
As to conditions: HEK cells stably expressing human α1G; measured at 1 μM drug; mainly non-inactivated protocol. How it is done:
(§1) T-type calcium channel blocking activity was assayed in human embryonic kidney cells, HEK 293, stably transfected with the T-type calcium channel subunits. Briefly, cells were cultured in Dulbecco's modified eagle medium (DMEM) supplemented with 10% fetal bovine serum, 200 U/ml penicillin and 0.2 mg/ml streptomycin at 37° C. with 5% CO2. At 85% confluency cells were split with 0.25% trypsin/1 mM EDTA and plated at 10% confluency on glass coverslips. At 12 hours the medium was replaced and the cells stably transfected using a standard calcium phosphate protocol and the appropriate calcium channel cDNA's. Fresh DMEM was supplied and the cells transferred to 28° C./5% CO2. Cells were incubated for 1 to 2 days prior to whole cell recording.
(§2) Standard patch-clamp techniques were employed to identify blockers of T-type currents. Briefly, previously described HEK cell lines stably expressing human α1G, α1H and α1I T-type channels were used for all the recordings (passage #: 4-20, 37° C., 5% CO2). Whole cell patch clamp experiments were performed using an Axopatch 200B amplifier (Axon Instruments, Burlingame, Calif.) linked to a personal computer equipped with pCLAMP software. Data were analyzed using Clampfit (Axon Instruments) and SigmaPlot 4.0 (Jandel Scientific). To obtain T-type currents, plastic dishes containing semi-confluent cells were positioned on the stage of a ZEISS AXIOVERT S100 microscope after replacing the culture medium with external solution (see below). Whole-cell patches were obtained using pipettes (borosilicate glass with filament, O.D.: 1.5 mm, I.D.: 0.86 mm, 10 cm length), fabricated on a SUTTER P-97 puller with resistance values of ˜5 MΩ (see below for internal solution).
(§3) In the non-inactivating protocol, the holding potential is set at −110 mV and with a pre-pulse at −100 mV for 1 second prior to the test pulse at −40 mV for 50 ms. In the inactivation protocol, the pre-pulse is at approximately −85 mV for 1 second, which inactivates about 15% of the T-type channels.
(§4) Test compounds were dissolved in external solution, 0.1-0.01% DMSO. After ˜10 min rest, they were applied by gravity close to the cell using a WPI microfil tubing. The “non-inactivated” pre-pulse was used to examine the resting block of a compound. The “inactivated” protocol was employed to study voltage-dependent block. However, the initial data shown below were mainly obtained using the non-inactivated protocol only. Kd values are shown for various compounds of the invention in Table 4 measured at 1 μM for the drug of interest except for compound 18 which was measured at 200 nM.

Assay [2] deals with T2, human α1H T-type channels (Homo sapiens, UniProt O95180).
T2 construct: expressed in transfected cells; host or cells: HEK 293
T2 sequence (O95180 whole entry): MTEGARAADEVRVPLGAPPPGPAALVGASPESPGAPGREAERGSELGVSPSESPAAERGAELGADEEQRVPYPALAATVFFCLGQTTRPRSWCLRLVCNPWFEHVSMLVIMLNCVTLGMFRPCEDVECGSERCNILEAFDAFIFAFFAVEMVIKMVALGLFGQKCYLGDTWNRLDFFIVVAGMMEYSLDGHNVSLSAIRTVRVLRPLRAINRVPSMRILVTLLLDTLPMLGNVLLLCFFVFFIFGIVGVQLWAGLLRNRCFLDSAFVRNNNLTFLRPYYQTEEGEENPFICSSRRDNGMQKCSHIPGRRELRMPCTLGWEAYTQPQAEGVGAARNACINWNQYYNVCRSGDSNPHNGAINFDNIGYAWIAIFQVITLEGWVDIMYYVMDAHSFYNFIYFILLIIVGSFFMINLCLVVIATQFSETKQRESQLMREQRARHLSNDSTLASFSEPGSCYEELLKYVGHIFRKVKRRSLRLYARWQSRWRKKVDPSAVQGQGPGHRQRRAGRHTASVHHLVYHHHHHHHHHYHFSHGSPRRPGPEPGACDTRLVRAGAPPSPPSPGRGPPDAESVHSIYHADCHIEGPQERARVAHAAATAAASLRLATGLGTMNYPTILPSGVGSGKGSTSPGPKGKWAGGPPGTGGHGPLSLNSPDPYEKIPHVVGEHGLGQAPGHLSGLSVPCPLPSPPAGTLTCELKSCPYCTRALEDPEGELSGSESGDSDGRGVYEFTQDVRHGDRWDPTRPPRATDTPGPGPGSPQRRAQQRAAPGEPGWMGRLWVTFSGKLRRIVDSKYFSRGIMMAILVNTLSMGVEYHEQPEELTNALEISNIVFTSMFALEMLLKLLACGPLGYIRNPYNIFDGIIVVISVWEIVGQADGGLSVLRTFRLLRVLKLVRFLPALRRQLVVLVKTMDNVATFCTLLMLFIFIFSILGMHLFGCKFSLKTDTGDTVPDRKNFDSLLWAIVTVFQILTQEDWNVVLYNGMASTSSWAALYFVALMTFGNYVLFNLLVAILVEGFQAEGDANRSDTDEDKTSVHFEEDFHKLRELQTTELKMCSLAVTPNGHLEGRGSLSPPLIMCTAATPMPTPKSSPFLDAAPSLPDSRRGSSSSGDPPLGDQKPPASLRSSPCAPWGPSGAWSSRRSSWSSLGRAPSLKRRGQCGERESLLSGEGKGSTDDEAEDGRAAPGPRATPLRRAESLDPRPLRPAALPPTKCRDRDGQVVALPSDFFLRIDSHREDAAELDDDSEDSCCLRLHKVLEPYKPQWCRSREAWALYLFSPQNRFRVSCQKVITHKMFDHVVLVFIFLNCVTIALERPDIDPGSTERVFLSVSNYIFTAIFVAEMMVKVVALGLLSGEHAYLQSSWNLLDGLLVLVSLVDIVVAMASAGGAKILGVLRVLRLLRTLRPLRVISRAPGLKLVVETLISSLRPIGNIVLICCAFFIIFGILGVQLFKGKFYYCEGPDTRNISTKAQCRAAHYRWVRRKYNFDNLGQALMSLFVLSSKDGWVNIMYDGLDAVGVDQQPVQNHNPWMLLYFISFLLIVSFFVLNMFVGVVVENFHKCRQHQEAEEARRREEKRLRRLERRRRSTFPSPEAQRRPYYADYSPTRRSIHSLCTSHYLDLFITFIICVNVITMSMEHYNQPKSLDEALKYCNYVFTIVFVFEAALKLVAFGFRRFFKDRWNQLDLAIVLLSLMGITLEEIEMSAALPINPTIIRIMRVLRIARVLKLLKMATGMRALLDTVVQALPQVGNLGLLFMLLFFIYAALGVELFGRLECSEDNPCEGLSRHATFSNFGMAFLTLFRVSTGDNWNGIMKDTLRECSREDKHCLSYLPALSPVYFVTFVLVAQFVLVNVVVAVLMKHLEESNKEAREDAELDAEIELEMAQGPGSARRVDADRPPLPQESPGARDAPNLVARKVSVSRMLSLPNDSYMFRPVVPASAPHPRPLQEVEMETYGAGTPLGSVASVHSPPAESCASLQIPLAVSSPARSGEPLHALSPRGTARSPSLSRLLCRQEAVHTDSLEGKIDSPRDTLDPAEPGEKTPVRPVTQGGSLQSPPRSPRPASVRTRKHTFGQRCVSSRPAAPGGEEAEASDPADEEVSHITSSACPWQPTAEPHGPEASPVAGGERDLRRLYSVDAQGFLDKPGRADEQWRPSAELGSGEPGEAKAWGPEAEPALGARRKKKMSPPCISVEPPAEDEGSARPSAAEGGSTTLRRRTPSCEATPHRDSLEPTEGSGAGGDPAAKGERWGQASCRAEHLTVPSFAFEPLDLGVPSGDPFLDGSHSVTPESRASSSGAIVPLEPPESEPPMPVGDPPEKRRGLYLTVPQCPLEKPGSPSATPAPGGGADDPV
Particulars: HEK cells stably expressing human α1H; measured at 1 μM drug; mainly non-inactivated protocol. How it is done:
as §1, §2, §3, §4

In assay [3] the target is T3, human α1I T-type channels (Homo sapiens, UniProt Q9P0X4).
T3 construct: expressed in transfected cells; host or cells: HEK 293
T3 sequence (Q9P0X4 whole entry): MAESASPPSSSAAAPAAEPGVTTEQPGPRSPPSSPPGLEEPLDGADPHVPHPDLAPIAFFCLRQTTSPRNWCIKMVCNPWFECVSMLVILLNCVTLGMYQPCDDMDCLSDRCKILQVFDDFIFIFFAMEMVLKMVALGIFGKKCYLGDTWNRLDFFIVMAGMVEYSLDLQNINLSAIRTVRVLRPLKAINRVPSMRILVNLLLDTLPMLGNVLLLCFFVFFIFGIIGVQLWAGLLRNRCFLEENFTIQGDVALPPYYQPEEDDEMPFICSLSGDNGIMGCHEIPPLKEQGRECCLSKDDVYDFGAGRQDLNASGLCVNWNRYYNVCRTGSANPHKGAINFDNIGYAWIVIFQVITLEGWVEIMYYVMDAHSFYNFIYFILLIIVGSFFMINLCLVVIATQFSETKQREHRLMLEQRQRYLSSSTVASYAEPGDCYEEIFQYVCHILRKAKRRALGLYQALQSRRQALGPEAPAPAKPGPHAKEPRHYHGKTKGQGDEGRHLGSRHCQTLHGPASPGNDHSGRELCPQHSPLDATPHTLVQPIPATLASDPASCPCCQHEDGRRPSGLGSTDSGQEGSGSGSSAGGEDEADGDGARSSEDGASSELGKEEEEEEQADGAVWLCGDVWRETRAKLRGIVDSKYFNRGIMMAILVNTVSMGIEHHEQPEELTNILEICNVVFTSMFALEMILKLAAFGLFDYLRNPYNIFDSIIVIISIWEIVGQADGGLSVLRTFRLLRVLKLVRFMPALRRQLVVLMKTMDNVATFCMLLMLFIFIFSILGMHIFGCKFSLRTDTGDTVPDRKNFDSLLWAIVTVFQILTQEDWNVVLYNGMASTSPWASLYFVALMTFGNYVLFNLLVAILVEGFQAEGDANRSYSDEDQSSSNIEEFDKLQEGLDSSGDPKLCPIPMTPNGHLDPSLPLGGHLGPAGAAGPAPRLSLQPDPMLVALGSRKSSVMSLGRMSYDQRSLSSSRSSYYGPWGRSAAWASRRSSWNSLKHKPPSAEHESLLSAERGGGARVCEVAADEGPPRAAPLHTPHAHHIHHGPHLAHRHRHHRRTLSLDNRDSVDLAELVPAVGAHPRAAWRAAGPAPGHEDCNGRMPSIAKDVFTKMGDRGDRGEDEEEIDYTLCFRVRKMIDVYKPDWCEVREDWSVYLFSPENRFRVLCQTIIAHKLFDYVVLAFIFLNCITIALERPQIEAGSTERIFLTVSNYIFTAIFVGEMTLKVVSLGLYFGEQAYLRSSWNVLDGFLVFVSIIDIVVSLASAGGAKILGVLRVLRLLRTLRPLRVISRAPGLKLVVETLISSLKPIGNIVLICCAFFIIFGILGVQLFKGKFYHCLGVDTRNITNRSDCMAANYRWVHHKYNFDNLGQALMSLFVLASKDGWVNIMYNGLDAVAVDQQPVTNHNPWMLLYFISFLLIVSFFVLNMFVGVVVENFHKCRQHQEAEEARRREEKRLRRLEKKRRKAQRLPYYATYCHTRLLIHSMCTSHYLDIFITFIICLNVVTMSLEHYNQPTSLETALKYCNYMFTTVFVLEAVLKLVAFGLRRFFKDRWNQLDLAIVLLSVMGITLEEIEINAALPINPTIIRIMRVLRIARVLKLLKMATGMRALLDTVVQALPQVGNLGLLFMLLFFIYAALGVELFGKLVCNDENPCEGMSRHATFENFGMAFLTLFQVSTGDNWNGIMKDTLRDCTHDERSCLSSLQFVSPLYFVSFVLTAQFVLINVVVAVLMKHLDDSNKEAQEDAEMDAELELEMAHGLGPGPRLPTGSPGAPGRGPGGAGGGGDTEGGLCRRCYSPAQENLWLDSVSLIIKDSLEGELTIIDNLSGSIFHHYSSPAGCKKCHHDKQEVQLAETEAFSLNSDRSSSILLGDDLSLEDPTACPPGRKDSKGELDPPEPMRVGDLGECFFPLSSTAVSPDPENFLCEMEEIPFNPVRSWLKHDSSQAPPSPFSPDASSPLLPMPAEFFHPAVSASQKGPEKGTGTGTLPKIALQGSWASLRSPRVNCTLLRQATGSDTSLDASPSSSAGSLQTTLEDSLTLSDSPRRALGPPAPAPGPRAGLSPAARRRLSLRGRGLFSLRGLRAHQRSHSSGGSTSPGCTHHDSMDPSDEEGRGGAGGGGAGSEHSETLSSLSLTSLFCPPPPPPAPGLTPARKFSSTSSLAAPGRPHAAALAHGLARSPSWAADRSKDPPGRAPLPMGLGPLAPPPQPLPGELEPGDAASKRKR
Particulars: HEK cells stably expressing human α1I; measured at 1 μM drug; mainly non-inactivated protocol. How it is done:
as §1, §2, §3, §4

With `Cc1c(C(=O)N2CCN(c3ccc(Cl)cc3)CC2)sc2ncn(CC(=O)NC3CCCCC3)c(=O)c12` [Compound 20, 2-(6-(4-(4-chlorophenyl)piperazine-1-carbonyl)-5-methyl-4-oxothieno[2,3-d]pyrimidin-3(4H)-yl)-N-cyclohexylacetamide], the values for the pKd in assay [1], in assay [2] and in assay [3] were 6.48, 6.74 and 5.68, respectively.
As for `Cc1c(C(=O)N2CCN(c3ccccc3)CC2)sc2ncn(CC(=O)NC3CCCCC3)c(=O)c12` [Compound 19, N-cyclohexyl-2-(5-methyl-4-oxo-6-(4-phenylpiperazine-1-carbonyl)thieno[2,3-d]pyrimidin-3(4H)-yl)acetamide], the pKd – broadly, the Kd on a negative log10 scale, so that one unit is a factor of ten – is 5.44 in assay [1], 6.44 in assay [2] and 5.62 in assay [3].
As to `Cc1c(C(=O)N2CCN(c3cccc(Cl)c3)CC2)sc2ncn(CC(=O)Nc3ccc(F)cc3F)c(=O)c12` [Compound 140, 2-(6-(4-(3-chlorophenyl)piperazine-1-carbonyl)-5-methyl-4-oxothieno[2,3-d]pyrimidin-3(4H)-yl)-N-(2,4 difluorophenyl)acetamide], the pKd in assay [1] was 6.44; in assay [2] it was 6.74; in assay [3], 5.30.
For `CNC(=O)c1sc2ncn(CC(=O)Nc3cc(C(F)(F)F)cc(C(F)(F)F)c3)c(=O)c2c1C` [Compound 66, 3-(2-(3,5-bis(trifluoromethyl)phenylamino)-2-oxoethyl)-N,5-dimethyl-4-oxo-3,4-dihydrothieno[2,3-d]pyrimidine-6-carboxamide], the results for the pKd in assay [1], in assay [2] and in assay [3] were 6.46, 5.12 and 5.98, respectively.
As to `Cc1c(C(=O)N2CCN(c3ccccc3F)CC2)sc2ncn(CC(=O)NC3CCCCC3)c(=O)c12` [Compound 23, N-cyclohexyl-2-(6-(4-(2-fluorophenyl)piperazine-1-carbonyl)-5-methyl-4-oxothieno[2,3-d]pyrimidin-3(4H)-yl)acetamide], the pKd is 5.90 in assay [1], 6.55 in assay [2] and 5.49 in assay [3].
`Cc1c(C(=O)N2CCN(c3cc(C(F)(F)F)cc(C(F)(F)F)c3)CC2)sc2ncn(CC(=O)NC(C)(C)C)c(=O)c12` [Compound 17, 2-(6-(4-(3,5-bis(trifluoromethyl)phenyl)piperazine-1-carbonyl)-5-methyl-4-oxothieno[2,3-d]pyrimidin-3(4H)-yl)-N-tert-butylacetamide]: the pKd in assay [1] is 6.29; in assay [2], 6.30.
On to `Cc1c(C(=O)N2CCN(c3ccccc3F)CC2)sc2ncn(CC(=O)NC3CCCC3)c(=O)c12` [Compound 36, N-cyclopentyl-2-(6-(4-(2-fluorophenyl)piperazine-1-carbonyl)-5-methyl-4-oxothieno[2,3-d]pyrimidin-3(4H)-yl)acetamide], for which the negative logarithm of the Kd (pKd) in assay [1] is 5.76; in assay [2], 6.12.
On to `Cc1c(C(=O)N2CCN(c3ccc(F)c(Cl)c3)CC2)sc2ncn(CC(=O)N3CCCC3)c(=O)c12` [Compound 134, 6-(4-(3-chloro-4-fluoro-phenyl)piperazine-1-carbonyl)-5-methyl-3-(2-oxo-2-(pyrrolidin-1-yl)ethyl)thieno[2,3-d]pyri-midin-4(3H)-one], for which the figures for the pKd in assay [1] and in assay [2] were 6.29 and 4.74, respectively.
For the molecule `CCN(CC)C(=O)Cn1cnc2sc(C(=O)N3CCN(c4cccc(Cl)c4)CC3)c(C)c2c1=O` [Compound 1, 2-(6-(4-(3-chlorophenyl)piperazine-1-carbonyl)-5-methyl-4-oxothieno[2,3-d]pyrimidin-3(4H)-yl)-N,N-diethylacetamide], the pKd in assay [1] was 5.61; in assay [2], 6.05.
Regarding `Cc1c(C(=O)N2CCN(c3ccccc3F)CC2)sc2ncn(CC(=O)N3CCC(C(F)(F)F)CC3)c(=O)c12` [Compound 89, 6-(4-(2-fluorophenyl)piperazine-1-carbonyl)-5-methyl-3-(2-oxo-2-((4-trifluoromethyl)piperidin-1-yl)ethyl) thieno[2,3-d]pyrimidin-4(3H)-one], the pKd in assay [1] is 6.20; in assay [2], 6.38.
Regarding `Cc1c(C(=O)N2CCN(c3cccc(Cl)c3)CC2)sc2ncn(CC(=O)NC(C)(C)C)c(=O)c12` [Compound 16, N-tert-butyl-2-(6-(4-(3-chlorophenyl)piperazine-1-carbonyl)-5-methyl-4-oxothieno[2,3-d]pyrimidin-3(4H)-yl)acetamide], the figures for the pKd in assay [1] and in assay [2] were 5.86 and 6.20, respectively.
Turning to `CCN(CC(F)(F)F)C(=O)Cn1cnc2sc(C(=O)N3CCN(c4ccc(C(F)(F)F)cc4)CC3)c(C)c2c1=O` [Compound 130, N-ethyl-2-(5-methyl-4-oxo-6-(4-(4-(trifluromethyl)phenyl)piperazine-1-carbonyl)thieno[2,3-d]pyrimidin-3(4H)-yl)-N-(2,2,2-trifluoroethyl)acetamide], the pKd in assay [1] is 5.46; in assay [2] it was 6.41.
`Cc1c(C(=O)N2CCN(c3ccccc3F)CC2)sc2ncn(CC(=O)Nc3ccc(C(F)(F)F)cc3)c(=O)c12` [Compound 142, 2-(6-(4-(2-fluorophenyl)piperazine-1-carbonyl)-5-methyl-4-oxothieno[2,3-d]pyrimidin-3(4H)-yl)-N-(4-(trifluoromethyl)phenyl)acetamide]: the pKd in assay [1] is 5.94; in assay [2], 6.15.
On to `CCN(CC(F)(F)F)C(=O)Cn1cnc2sc(C(=O)N3CCN(c4cccc(Cl)c4)CC3)c(C)c2c1=O` [Compound 127, 2-(6-(4-(3-chlorophenyl)piperazine-1-carbonyl)-5-methyl-4-oxothieno[2,3-d]pyrimidin-3(4H)-yl)-N-ethyl-N-(2,2,2-trifluoroethyl)acetamide], for which the pKd is 5.94 in assay [1] and 6.20 in assay [2].
Consider `Cc1c(C(=O)N2CCN(c3ccccc3F)CC2)sc2ncn(CC(=O)N3CCCCC3)c(=O)c12` [Compound 81, 6-(4-(2-fluorophenyl)piperazine-1-carbonyl)-5-methyl-3-(2-oxo-2-(piperidin-1-yl)ethyl)thieno[2,3-d]pyrimidin-4(3H)-one], for which the pKd in assay [1] was 5.77; in assay [2] it was 6.14.
The matching figures for `Cc1c(C(=O)N2CCN(c3ccc(F)c(Cl)c3)CC2)sc2ncn(CC(=O)N3CC[C@H](F)C3)c(=O)c12` [Compound 137, (S)-6-(4-(3-chloro-4-fluoro-phenyl)piperazine-1-carbonyl)-3-(2-(3-fluoro-pyrrolidin-1-yl)-2-oxoethyl)-5-methyl-thieno[2,3-d]pyrimidin-4(3H)-one]: 5.74 and under 5.07.
Consider `Cc1c(C(=O)N2CCN(c3cccc(Cl)c3)CC2)sc2ncn(CC(=O)N3CCC(F)(F)C3)c(=O)c12` [Compound 78, 6-(4-(3-chlorophenyl)-piperazine-1-carbonyl)-3-(2-(3,3-difluoropyrrolidin-1-yl)-2-oxoethyl)-5-methylthieno[2,3-d]pyrimidin-4(3H)-one], for which the pKd in assay [1] is 6.21; in assay [2], 6.40.
For `CCN(CC)C(=O)Cn1cnc2sc(C(=O)N3CCN(c4ccc(Cl)c(C(F)(F)F)c4)CC3)c(C)c2c1=O` [Compound 8, 2-(6-(4-(4-chloro-3-(trifluoromethyl)phenyl)piperazine-1-carbonyl)-5-methyl-4-oxothieno[2,3-d]pyrimidin-3(4H)-yl)-N,N-diethylacetamide], in that order: 6.35 and 6.27.
With `Cc1c(C(=O)N2CCN(c3ccc(Cl)cc3)CC2)sc2ncn(CC(=O)NC(C)(C)C)c(=O)c12` [Compound 15, N-tert-butyl-2-(6-(4-(4-chlorophenyl)piperazine-1-carbonyl)-5-methyl-4-oxothieno[2,3-d]pyrimidin-3(4H)-yl)acetamide], the figures for the pKd in assay [1] and in assay [2] were 5.63 and 6.06, respectively.
Consider `Cc1c(C(=O)N2CCN(c3ccc(F)cc3)CC2)sc2ncn(CC(=O)NC3CCCCC3)c(=O)c12` [Compound 22, N-cyclohexyl-2-(6-(4-(4-fluorophenyl)piperazine-1-carbonyl)-5-methyl-4-oxothieno[2,3-d]pyrimidin-3(4H)-yl)acetamide], for which the pKd in assay [1] is 5.87; in assay [2], 6.37.
For `CCN(CC)C(=O)Cn1cnc2sc(C(=O)N3CCN(c4ccc(Cl)cc4)CC3)c(C)c2c1=O` [Compound 5, 2-(6-(4-(4-chlorophenyl)piperazine-1-carbonyl)-5-methyl-4-oxothieno[2,3-d]pyrimidin-3(4H)-yl)-N,N-diethylacetamide], the results for the pKd in assay [1] and in assay [2] were 5.91 and 6.21, respectively.
